Row | SMILES | melting point [°C]
1 | COC1CSC2=C(SC1)C(OC(=O)N1CCN(C(=O)C(C)C)CC1)N(c1ccc3ccc(Cl)nc3n1)C2=O (centres undefined) | 232
2 | N#Cc1ccnc(C(N)=O)c1N | > 310
3 | CC1(C)COC(c2cc(F)c(F)c([Si](C)(C)C)c2F)=N1 | 71 to 72
4 | N#Cc1ccc(Nn2cnnc2)cc1-c1ccoc1 | 199 to 200
5 | COCc1cc(C(O)CNCCCCCCOCCCc2ccccc2)ccc1O (centres undefined) | 68 to 70
6 | O=C1CC(C(=O)O)CC(O)=C1N=Nc1ccccc1 (centres undefined) | 218
7 | O=C(c1ccc(Cl)cc1)c1cncnc1 | 110 to 112
8 | Cc1nc(C(F)(F)F)ccc1/C=C/C(=O)Nc1ccc2[nH]ccc2c1 | 231
9 | Clc1cccc2c1Oc1ccccc1NC2 | 71 to 73
10 | N#Cc1c(N)[nH]c2ccc(Sc3ccc(O)cc3)cc12 | 241 to 242
11 | O=c1[nH]c2ccncc2c(=O)o1 | 180
12 | Cc1ccc(-c2cc(C(F)(F)F)n3ncc(-c4ccncc4)c3n2)cc1C(F)(F)F | 218
13 | Brc1ccc2nc(NC3=NCCN3)[nH]c2c1 | 264 to 266
14 | CC(=CC(=O)Nc1ccc(C(=O)O)cc1)c1cc(C(C)C)c(C(C)C)o1 | 232 to 235
15 | CC(=O)C1(c2ccc(Br)cc2)C=CC=CC1 (centres undefined) | 126 to 128
16 | CCOC(=O)Nc1cc([N+](=O)[O-])cc(CC)c1C(=O)OCC | 47 to 48
17 | O=C(O)c1cnc2n(c1=O)CCCCC2 | 117 to 119
18 | O=C1CCCC(Sc2ccccc2)C(c2ccccc2)O1 (centres undefined) | 166
19 | CCOC(=O)Nc1csc2cc(O)ccc12 | 159 to 160
20 | CCCCCCOc1ccc(C(=O)NCCN(O)C(N)=O)cc1 | 148 to 151
21 | Nc1ccc(CS(=O)(=O)CCO)cc1CS(=O)(=O)CCO | 183 to 185

Row | SMILES | melting point [°C]
22 | COC(=O)C(c1ccccc1)c1cn[nH]c1 (racemic) | 100 to 103
23 | CNCC1Cc2cc(-c3cccc(F)c3)cc(F)c2O1 (centres undefined) | > 250
24 | O=C(Nc1nc2ccc(Sc3nnc4ccc(-c5cnn(CCOC6CCCCO6)c5)cn34)cc2s1)C1CC1 (centres undefined) | 110
25 | CCCc1cc(NCc2ccc3c(c2)OCO3)nc(SCC#N)n1 | 92 to 94
26 | Cn1cnc2c1c(=O)n(CCCCC(=O)CBr)c(=O)n2C | 125 to 135
27 | COC(=O)C(C)OC(=O)Cc1cc(Oc2ccc(C(F)(F)F)cc2Cl)ccc1[N+](=O)[O-] (centres undefined) | 72.1 to 72.9
28 | CCCCCCCCCCn1c(=S)nc2cc(Cl)ccn2c1=S | 153 to 155
29 | NS(=O)(=O)c1ccc(-n2nc(C(F)(F)F)cc2-c2ccc(-c3cscn3)c(Cl)c2)cc1F | 173 to 175
30 | Cn1c(C=O)cc2ccccc21 | 83
31 | O=C1Nc2ccccc2N2CCCC12 (centres undefined) | 169 to 172
32 | CCNC(=O)N(Cc1ccc(Cl)cc1)C1CC2CCC1C2 (centres undefined) | 132 to 133
33 | CCCCCCCCCCOS(=O)(=O)NC(=O)Nc1c(C(C)C)cccc1C(C)C | 133 to 135
34 | CC(=O)CC(=O)c1cc(Cl)c(Cl)cc1O | 134 to 135
35 | N#Cc1ncn2c1[C@@H]1CCCN1C(=O)c1c(Cl)cccc1-2 | 237 to 238
36 | O=c1[nH]c2ncc(-c3ccc4cc[nH]c4c3)nc2n1CC1CCCCC1 | 359 to 363
37 | CON1C=C2C=C(SC)N=C(Cl)N2N1 | 243 to 244
38 | CC(C)CC(=Cc1ccccc1)C(=O)O | 66 to 67.5
39 | FC(F)c1cc(-c2ccc(C(F)(F)F)cc2)nc2c(-c3ccncc3)cnn12 | 222
40 | C[C@@H]1CCCN1CCCOc1ccc2c(c1)CCc1cc(=O)[nH]nc1-2 | 289 to 292
41 | NC(=O)CCCCCc1cccc2cncn12 | 131 to 132
42 | CO/N=C(/CNC(=O)c1cnc(O[C@@H](C)C(F)(F)F)c(-c2ccc(Cl)cc2)n1)C1CC1 | 149 to 152

Row | SMILES | melting point [°C]
43 | Clc1ccc(-c2ccn3nccc3n2)cc1 | 178 to 180
44 | CCCCCn1c2c(c3ccc(OC)cc31)CN(S(=O)(=O)c1cccc3c(N(C)C)cccc13)CC2 | 71 to 72
45 | Cc1nnc2nc(-c3cccc(C(F)(F)F)c3)ccn12 | 232 to 234
46 | CCCCCCCCCCCCCOc1ccc(CO)cc1 | 72 to 75
47 | CC(=O)Nc1ccc2c(c1)C(=O)N(CCCl)CO2 | 133 to 135
48 | Cn1c(C(F)(F)F)cc(=O)n(-c2ccc(O)cc2F)c1=O | 185 to 190
49 | O=C1c2c(O)cccc2C(C(=O)C2CCCCC2)c2cccc(O)c21 | 220
50 | CCNC(=C[N+](=O)[O-])NCCSCc1nccs1 | 115 to 116
51 | O=C(O)Cc1c(C(=O)c2ccc3c(c2)OCCO3)[nH]c2cc(Cl)ccc12 | 233
52 | CCC(C)(C)Nc1c(NCc2ccc(C)c(Cl)c2)c(=O)c1=O | 261 to 263
53 | CC(c1cccnn1)c1cccc(Cl)c1Cl (centres undefined) | 96 to 98
54 | Oc1ccc(-c2ccc(O)cc2I)c(I)c1 | 171 to 172
55 | O=C(O)CNC(=O)NC(CSC(=O)Nc1ccccc1)Cc1ccccc1 (centres undefined) | 179 to 181
56 | CCOC(=O)c1ccc(OCC2=CCN(c3ccc(Cl)nn3)CC2)cc1 | 162
57 | CN(C)C=Nc1c(S(=O)C(F)(F)F)c(-c2ncon2)nn1-c1c(Cl)cc(C(F)(F)F)cc1Cl (centres undefined) | 140
58 | CC(=O)ON1C(C)(C)CC(OC(=O)CCCCCCCCC(=O)OC2CC(C)(C)N(OC(C)=O)C(C)(C)C2)CC1(C)C | 81 to 94
59 | COc1ccc(Cl)cc1-c1c(N)c(=O)[nH]c2cc(C(F)(F)F)c(Cl)cc12 | 252 to 253
60 | CC(/C=C/C(=O)N1CCCc2cc3c(cc21)C(C)(C)CCC3(C)C)=C\C(=O)O | 225 to 227
61 | CCOC(=O)c1sc(NC(=O)c2ccc(C#N)cc2)nc1C | 293 to 295
62 | CC(c1cc(Cl)ccc1O)c1cc(Br)ccc1O (centres undefined) | 167
63 | CC1(C)OC(=O)Nc2ccc(-c3cc([N+](=O)[O-])cc([N+](=O)[O-])c3)cc21 | 297 to 298

Now from value to molecule:

Row | melting point [°C] | SMILES
64 | 58 to 61 | COC(=O)C(Cc1ccccc1)Oc1ccc2cc(-c3cnc(-c4cn(C)c5ccccc45)o3)ccc2c1 (centres undefined)
65 | 190 to 191 | COc1cc(COc2nn(-c3ccccc3)cc2C=C(C#N)C#N)ccc1OCc1nc(-c2ccco2)oc1C
66 | 198 | c1ccc(C2Cn3c(nc4cc5ccccc5cc43)S2)nc1 (centres undefined)
67 | > 250 | COC(=O)c1ccc(CCCc2cnc3nc(N)nc(O)c3c2)cc1
68 | 91 to 94 | CCC(C)(C)c1ccc(OCCCNC(=O)c2cc(N=C=S)c3ccccc3c2O)c(C(C)(C)CC)c1
69 | 145 to 146 | CCOC(=O)COc1ccccc1C(=O)Nc1ccccc1Sc1ccccc1-c1nnn[nH]1
70 | 207 to 208 | COC(=O)c1ccc(Cn2c(C)nc3ccccc32)c2ccccc12
71 | 201 | CS(=O)(=O)C(=C1CN(C(c2ccccc2)c2ccccc2)C1)c1cccc(Cl)c1Cl
72 | 175 to 176 | N=C(Nc1ccc(Cl)cc1)Nc1ncccc1Cc1ccccc1F
73 | 236 to 237 | CCOc1c(OC)c(OC)cc(C(=O)O)c1-c1c(C(=O)O)cc(OC)c2c1OCO2
74 | 130 | COc1ccc(C2=N[C@H](c3ccccc3)[C@@H](OC(=O)Nc3ccc(Cl)c(Cl)c3)CO2)cc1 (racemic)
75 | 122 to 123 | O=C(c1ccccc1)c1ccc(OCc2ccccc2)cc1S
76 | 133 to 136 | CC(C)n1nc(-c2c(OCC(=O)N(C)C)nc(N)nc2-c2ccccc2)ccc1=O
77 | 194 to 196 | Cc1cc(COc2ccccc2)c2c(N)c(C(N)=O)sc2n1
78 | 150 | CCOC(=O)N1CCc2nc3ccccc3c(Oc3ccccc3)c2CC1
79 | 197 to 199 | O=C(O)c1cc(-c2ccc(OCc3ccccc3)cc2)c(=O)n2ccc3ccsc3c12
80 | 127 to 129 | Cc1nc(C(=O)Nc2cccc(Cl)c2Cl)c(C)n1-c1ccccc1
81 | 175 to 176 | Cn1nnnc1CC(O)(c1ccccc1)c1ccccc1

Row | melting point [°C] | SMILES
82 | 228 to 231 | Oc1ccc2c(c1)COc1c-2cc2ccc(O)cc2c1-c1cccc(C(F)(F)F)c1
83 | 143 to 147 | CCc1cc(C(=O)c2ccccc2Cl)c(-n2c(C)nnc2CNC(=O)c2[nH]c3ccccc3c2C)s1
84 | 184 to 186 | COc1ccc(C(=O)Nc2ccccc2)cc1NCc1ccc(C)cc1
85 | 262 | COc1ccc2[nH]c3c(C(=O)O)cccc3c2c1
86 | 141 to 143 | COc1cc(Nc2c(C#N)cnc3cc(-c4cncc(CN5CCOCC5)c4)ccc23)c(Cl)cc1Cl
87 | 117 to 119 | Cn1nc(-c2c(F)cccc2Cl)nc1-c1ccc(F)c(-c2ccc(OC(F)(F)F)cc2)c1
88 | 175 to 176 | O=C(Nc1ccc(Oc2ccnc(-n3ccnc3)n2)c2ccccc12)c1cc(F)cc(N2CCCCC2)c1
89 | 95 | N#CCc1ccc(OCc2ccccc2)c2c1OCCO2
90 | 139 to 142 | CCOc1cccc(-c2cc(F)c(NC(=O)c3ccccc3CO)c(Cl)c2)c1
91 | 174 to 175 | Oc1cccc(-c2cc(-c3ccc(-c4ccccc4)cc3)cc(-c3ccc4ccccc4c3)n2)c1
92 | 190 to 194 | CCCCc1oc2ccccc2c1C(=O)N(C)Cc1ccc2c(Br)c(OCc3nnn[nH]3)ccc2c1
93 | 178 to 188 | O=[N+]([O-])c1ccc(-n2ccnc2)cc1Sc1cccc2cnccc12
94 | 208 to 210 | COCCOc1ccc(-c2cncc(C#N)c2Nc2ccc3[nH]ccc3c2C)cc1
95 | 210 | Cc1ccc2c(c1)C=Cc1cc(C)ccc1C2c1cn(-c2ccnc(N(C)CC(=O)Nc3nc(CC(=O)O)cs3)n2)c(=O)[nH]c1=O
96 | 164 to 166 | COc1ccc2cc(-c3ccc(S(C)=O)cc3)ccc2n1 (centres undefined)
97 | 186 to 189 | CNCCn1nc2c3c(c(NCCNCCO)ccc31)C(=O)c1c(OCc3ccccc3)ccc(OCc3ccccc3)c1-2
98 | 121 to 123 | CCOc1ccc(CN2C(=O)SC(S(=O)(=O)c3ccc(C)cc3)C2=O)c(OCC)c1 (centres undefined)
99 | 288 to 290 | COc1cc2c(=O)n(CCCn3ccnc3)c3c4ccccc4[nH]c(=O)c3c2cc1OC

Source: a melting point compilation (Tetko et al.; mined from patent text by program, amines drawn as free bases though some values may be those of a salt)
